Data as given in patent US20050037446A1, “Agents that recognize src when phosphorylated at serine 17” (priority 2001, published 2005).

Experiments:
Format in all cases: cell-based
Rap1 = Rap1 activation affinity assay, Hek293 cells; settings: 10 μM; for Effect of inhibitor on isoproterenol's activation of endogenous Rap1: 20 minutes
Experimental: The Rap1 activation affinity assay was performed as follows. A GST fusion protein of the Rap1-binding domain of RalGDS (GST-RalGDS, Dr. Bos, Utrecht University, The Netherlands) was expressed in E. coli following induction by isopropyl-1thio-β-D-galactopyranoside. Active Rap1 was isolated as previously described (Franke et al., EMBO J. 16:252-9, 1997). Briefly, equivalent amounts of supernatants (500 μg) were incubated with GST-RalGDS-Rap1 binding domain coupled to glutathione beads. Following a one hour incubation at 4° C., beads were pelleted and rinsed threes times with ice-cold lysis buffer. The protein was eluted from the beads using 2× Laemmli buffer and applied to a 12% SDS-polyacrylamide gel. Proteins were tansferred to PVDF membrane (Millipore Corporation, Bedford, Mass.), blocked in 5% milk for one hour and, probed with either α-Rap1/Krev-1 (Santa Cruz Biotechnology Inc., Santa Cruz, Calif.) or Flag antibody (Sigma, St Louis, Mo.) overnight at 4° C., followed by an HRP-conjugated anti-rabbit secondary antibody (or anti-mouse secondary for anti-Flag western blots). Proteins were detected using enhanced chemiluminescence.
Hek293 cells (ATCC) were cultured in DMEM plus 10% fetal calf serum, penicillin/streptomycin, and L-glutamine at 37° C. in 5% CO2. Cells were maintained in serum-free DMEM for 16 hours at 37° C. in 5% CO2 prior to treatment with H89 (10 μM) or PP2 (10 μM) for 20 minutes, and then treated with isoproterenol (10 μM) for 5 minutes. Cell lysates were prepared, and a Rap1 activation affinity assay performed as described in Example 1. […] This activation required Src family kinases (SFKs) as it was blocked by the inhibitor PP2.
The mechanism of ERK activation by isoproterenol in Hek293 cells was determined as follows. Hek293 cells were transfected with Flag-Rap1 along with pcDNA3, SrcS17A, SrcS17D, or SrcWT as described above. […]

ERK1/2 = assay: ERK phosphorylation Western blot, Hek293 cells; settings: 10 μM, 20 minutes pretreatment
Experimental: To examine the downstream consequences of Src-dependent signaling in Hek293 cells, ERK activation was measured using pERK antibodies (pERK1/2). Hek293 cells received no pretreatment or were pretreated for 20 minutes with H89 (10 μM), PP2 (10 μM), or LY (10 μM), and stimulated for 5 minutes with isoproterenol (10 μM), Forskolin (10 μM), or 100 ng/ml EGF, using the methods described above. Cell lysates were analyzed by Western blotting for the presence of pERK1/2 (New England Biolabs) or total ERK2 (Santa Cruz Biotechnology) as a control for protein loading.
To determine the role of PKA phosphorylation of Src serine 17 in ERK activation by cAMP, Hek293 cells were transfected with myc-ERK2 in the presence or absence of SrcS17A or SrcS17D, and stimulated with 10 μM isoproterenol. MycERK2 was immunoprecipitated from cell lysates using an agarose-coupled Myc antibody followed by western blotting for phospho-ERK (pMycERK2, upper panel) or total MycERK2 with a Myc antibody, as a control for protein loading.

[1] = tested on: complex including C3G, Crk-L, and Cb1; assay: Cb1/Crk-L/C3G complex formation (myc-Cb1 immunoprecipitation), NIH3T3 cells
From the text: To determine if Cb1 forms part of a complex, cells were stimulated with Forskolin in the presence or absence of H89 or PP2 and lysates generated as described above. Myc-Cb1 was immunoprecipitated from treated cells and the pellets analyzed by Western blot using antibodies specific for Crk-L and C3G. Total cell lysates were examined for myc-Cb1 by Western blot using a myc antibody (Santa Cruz Biotechnology Inc.). NIH3T3 cells express Crk-L, an isoform of Crk that is constitutively bound to C3G.

| SMILES | Effect of inhibitor on isoproterenol's activation of endogenous Rap1 (Rap1) | Effect of inhibitor on isoproterenol's phosphorylation of ERK (ERK1/2) | Effect on Forskolin-stimulated C3G/Crk-L/Cb1 complex formation [1] | Activation of endogenous Rap1 (Rap1; 5 minutes) |
| --- | --- | --- | --- | --- |
| O=S(=O)(NCCNC/C=C/c1ccc(Br)cc1)c1cccc2cnccc12 [H89, N-[2(Bromocimamylamino)ethyl]-5-isoquinolinesulfonamide] | PKA-dependent | inhibited | blocked |  |
| CC(C)(C)n1nc(-c2ccc(Cl)cc2)c2c(N)ncnc21 [PP2, 4-amino-5-(4-chlorophenyl)-7-(t-butyl)pyazolo[3,4-d]pyrimidine] | blocked | inhibited | blocked |  |
| CC(C)NCC(O)c1ccc(O)c(O)c1 (stereo not shown) [isoproterenol] |  |  |  | activated endogenous Rap1 |
